The record followed here is patent publication US8420657B2 (Novartis AG, priority 2008, dated 2013).

For one experiment, the target named is T1, GST-JAK2(808-1132) (Homo sapiens, UniProt O60674).
T1 construct: GST-JAK2(808-1132); purchased Invitrogen (Carlsbad, USA) #4288
The experiment is described as follows: JAK2 kinase assay (Caliper mobility shift, LabChip 3000). It is filed as biochemical. A digest of the protocol:
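Recombinant GST-JAK2(808-1132) kinase domain with FITC-labelled JAK3tide peptide substrate and ATP; 60 min at 30 °C, EDTA stop. Substrate/product ratio read by microfluidic mobility shift; compounds at 8 final concentrations, 10 to 0.003 μM.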

In experiment [1] the test system is JAK2-dependent nuclear translocation of STAT5-GFP in U-2 OS osteosarcoma cells. The experiment is described as follows: STAT5 nuclear translocation assay (Cellomics), rhEpo stimulated U-2 OS STAT5-GFP cells. The following applies: Homo sapiens, U2OS; STAT5 translocation pathway. It is filed as cell-based. In outline: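 U-2 OS cells stably expressing STAT5a-GFP and EpoR pre-treated with compound (final 10 μM to 0.003 μM, 0.1% DMSO) for 30 min at 37° C., then stimulated 1 h with 5 U/ml rhEpo. Nuclear-cytoplasmic GFP differential quantified by automated imaging (≥1000 cells/well, Hoechst nuclear mask). IC50 from % translocation normalized to untreated and DMSO-stimulated controls.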

A value given as a limit tells only on which side of the number the result lay.

T1 sequence (O60674 808-1132): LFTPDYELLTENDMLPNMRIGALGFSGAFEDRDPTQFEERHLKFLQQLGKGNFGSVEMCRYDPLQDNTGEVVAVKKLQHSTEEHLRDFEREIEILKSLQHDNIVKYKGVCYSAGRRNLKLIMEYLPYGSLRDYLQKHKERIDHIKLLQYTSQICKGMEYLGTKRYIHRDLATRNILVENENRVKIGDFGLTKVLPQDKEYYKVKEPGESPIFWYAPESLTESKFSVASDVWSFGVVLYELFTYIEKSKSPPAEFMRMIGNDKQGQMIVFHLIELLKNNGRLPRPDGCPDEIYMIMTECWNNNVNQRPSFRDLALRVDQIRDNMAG

By IC50 is commonly meant the midpoint of a concentration-inhibition curve. Take `Cc1ccc(Nc2ncc3ccn(-c4cc(F)c(CN5CCOCC5)c(F)c4)c3n2)cc1Cn1cc(CN(C)C)nn1` [Example 418, [7-(3,5-Difluoro-4-morpholin-4-ylmethyl-phenyl)-7H-pyrrolo[2,3-d]pyrimidin-2-yl]-[3-(4-dimethylaminomethyl-[1,2,3]triazol-1-ylmethyl)-4-methyl-phenyl]-amine]: the IC50 at GST-JAK2(808-1132) was determined as 4.6 nM; in experiment [1], 16 nM.
In the case of `Fc1cc(-n2ccc3cnc(Nc4ccc([C@@H]5CNCCN5)cc4)nc32)cc(F)c1CN1CCOCC1` [Example 475, [7-(3,5-Difluoro-4-morpholin-4-ylmethyl-phenyl)-7H-pyrrolo[2,3-d]pyrimidin-2-yl]-((R)-4-piperazin-2-yl-phenyl)-amine], the IC50 was no more than 3 nM on GST-JAK2(808-1132) and 5.3 nM in experiment [1].
The matching figures for `O=C(c1cc(Nc2ncc3ccn(-c4cc(F)c(CN5CCOCC5)c(F)c4)c3n2)ccn1)N1CCNCC1` [Example 390, {4-[7-(3,5-Difluoro-4-morpholin-4-ylmethyl-phenyl)-7H-pyrrolo[2,3-d]pyrimidin-2-ylamino]-pyridin-2-yl}-piperazin-1-yl-methanone]: 15 nM and 104 nM.
With `Cc1ccc(Nc2ncc3ccn(-c4cc(F)c(CN5CCCC5=O)c(F)c4)c3n2)cc1CN1CCNCC1` [Example 463, 1-{2,6-Difluoro-4-[2-(4-methyl-3-piperazin-1-ylmethyl-phenylamino)-pyrrolo[2,3-d]pyrimidin-7-yl]-benzyl}-pyrrolidin-2-one], the values for the IC50 (at GST-JAK2(808-1132); in experiment [1]) were no more than 3 nM and 48 nM, respectively.
The corresponding values for `Cc1ccc(Nc2ncc3ccn(-c4cc(F)c(CN5CCOCC5)c(F)c4)c3n2)cc1CN1CC(O)C1` [Example 394, 1-{5-[7-(3,5-Difluoro-4-morpholin-4-ylmethyl-phenyl)-7H-pyrrolo[2,3-d]pyrimidin-2-ylamino]-2-methyl-benzyl}-azetidin-3-ol] are no more than 3 nM and 1.6 nM.
The corresponding values for `Cc1ccc(Nc2ncc3ccn(-c4cc(F)c(CN5CCS(=O)(=O)CC5)c(F)c4)c3n2)cc1CN1CCC(N(C)C)C1` (racemic) [Example 435, [3-(3-Dimethylamino-pyrrolidin-1-ylmethyl)-4-methyl-phenyl]-{7-[4-(1,1-dioxido-thiomorpholin-4-ylmethyl)-3,5-difluoro-phenyl]-7H-pyrrolo[2,3-d]pyrimidin-2-yl}-amine] are no more than 3 nM and 3.4 nM.
The corresponding values for `C[C@@H]1CN(c2ncc(Nc3ncc4ccn(-c5cc(F)c(CN6CCS(=O)(=O)CC6)c(F)c5)c4n3)cc2Cl)C[C@H](C)N1` [Example 430, [5-Chloro-6-(cis-3,5-dimethyl-piperazin-1-yl)-pyridin-3-yl]-{7-[4-(1,1-dioxido-thiomorpholin-4-ylmethyl)-3,5-difluoro-phenyl]-7H-pyrrolo[2,3-d]pyrimidin-2-yl}-amine] are no more than 3 nM and 3.6 nM.
For `O=C1CNCCN1Cc1ccc(Nc2ncc3ccn(-c4cc(F)c(CN5CCOCC5)c(F)c4)c3n2)cc1` [Example 498, 1-{4-[7-(3,5-Difluoro-4-morpholin-4-ylmethyl-phenyl)-7H-pyrrolo[2,3-d]pyrimidin-2-ylamino]-benzyl}-piperazin-2-one], the figures for the IC50 (on GST-JAK2(808-1132); in experiment [1]) were no more than 3 nM and 83 nM, respectively.
The matching figures for `Cc1ccc(Nc2ncc3ccn(-c4cc(F)c(CN5CCOCC5)c(F)c4)c3n2)cc1CN1C[C@H](C)NC[C@H]1C` (racemic) [Example 378, [7-(3,5-Difluoro-4-morpholin-4-ylmethyl-phenyl)-7H-pyrrolo[2,3-d]pyrimidin-2-yl]-[3-((2R,5S)-2,5-dimethyl-piperazin-1-ylmethyl)-4-methyl-phenyl]-amine]: 13 nM and 45 nM.
